Laboratory results from patent publication US20070112018A1, “Treatment of peripheral arterial occlusive disease” (priority 2005, published 2007).
Converted amounts (≈) assume the structure as drawn.

What was measured:
[1] = Placebo-controlled study of 30 mg and 100 mg in healthy volunteers, adverse events; type: in vivo, human
Experimental: In a placebo-controlled study of 30 mg and 100 mg in […], […] received the 30 mg dose of rifalazil. Sixty-two percent of patients (5/8) reported AEs while 33% of placebo subjects (3/9) reported AEs. The only AE of note reported in this rifalazil dose group was headache (38%, […]) compared to the placebo-treated group (11%, 1/9 subjects). […] However, this baseline value was not considered clinically significant nor were subsequent nadir values obtained on Days 3 and 7 (3.8×10^3 cells/mm^3).

[2] = Phase 1 Study ABI-1648-009, food effect on PK of single 25-mg oral dose
[3] = Degradation to 25-desacetyl derivative under acidic and basic conditions; type: physicochemical
From the text: Rifalazil degrades to a 25-desacetyl derivative under both acidic and basic conditions. Typical of ester hydrolysis, the degradation in highly alkaline solutions is rapid while at an acidic pH, e.g., pH 1, the degradation at room temperature is slower, approximately 6% in one hour.

[4] = human, in vivo
Experimental: In another study, three dose levels of rifalazil were administered for the treatment of non-gonococcal urethritis in 170 male patients. Doses used were in this study were single-doses of 2.5, 12.5 mg and 25 mg. Males were between 18-45 years of age with signs or symptoms of urethritis, including urethral discharge.

[5] = Phase 1 Study ABI-1648-006, multiple oral dose pharmacokinetics; settings: for Tmax / AUC / Cmax / half-life: human, plasma; for AUC0-Tau/Dose Mean / Cmax/Dose Mean: normalized to 1 mg/kg
Experimental: Study ABI-1648-006 was conducted to evaluate the PK of single and multiple oral doses of 2.5, 5, 12.5, and 25 mg administered to healthy male and female volunteers.

[6] = Non-clinical oral pharmacokinetics in the rat; type: in vivo; settings: for bioavailability: rat, plasma, po
Experimental: (§1) In rats and dogs, the Vdβ/F following oral administration was 40-80 L/kg. […] The highest mean Cmax observed was in the wall of the GI tract and occurred approximately 1 hour post-dose. […] A large tissue compartment of rifalazil is considered important for efficacy against Chlamydia given the intracellular nature of Chlamydia infection.

[7] = Non-clinical oral pharmacokinetics in the beagle dog; type: in vivo
Experimental: as §1

[8] = Tissue concentrations after multiple oral doses in the monkey; type: in vivo
Experimental: as §1

[9] = physchem; type: physicochemical
Experimental: Rifalazil is a highly lipophilic molecule having limited solubility in water at physiological pH (approximately 200 ng/mL). Evidence of the highly lipophilic behavior of the molecule is illustrated in the partition coefficient (n-octanol:water) of between 70, 569 and over 900,000 in different experiments (Log P range; 4.9-5.9).

[10] = Healthy volunteers, 25 or 50 mg once a week for 4 weeks, adverse events; type: in vivo, human
Experimental: In one study, healthy volunteers received 25 or 50 mg once a week for 4 weeks. The overall incidence of AEs was 33% after the first weekly dose, 12% after the second and third weekly dose, and 0% at the fourth weekly dose. No subject discontinued the study due to AEs, and no serious AEs were reported in this study. The predominant AEs reported in the rifalazil group but not in the placebo group included: back pain (2/6. 33%), chills (3/6, 50%), neck pain (1/6. 17%), insomnia, and a range of gastrointestinal (GI) disturbances such as anorexia, nausea, thirst and vomiting (all in 1/6 patients, 17%).
The lowest individual value for subjects receiving 25 mg/week was 2.2×10^3/mm^3 (Day 25), and for 50-mg/week subjects, 2.3×10^3/mm^3 (Day 11). All values returned to baseline within 2 weeks of cessation of dosing. […] The above normal values at 50 mg/week occurred in 1 subject, and were of moderate Grade 2 severity during the interval from approximately Day 15 to Day 78. […] All values returned to baseline levels within 2 weeks of cessation of dosing.
The phenomenon of accommodation or tolerance with repeat weekly dosing of rifalazil became evident during the course of the study for both the 25-mg and 50-mg doses. In the 25-mg dosage group, the peak incidence of AEs occurred in the first week and decreased substantially over the remaining weeks.

Structure (SMILES): CO[C@H]1/C=C/O[C@@]2(C)Oc3c(C)c(O)c4c(=O)c(c5oc6cc(N7CCN(CC(C)C)CC7)cc(O)c6nc-5c4c3C2=O)NC(=O)/C(C)=C\C=C\[C@H](C)[C@H](O)[C@@H](C)[C@@H](O)[C@@H](C)[C@H](OC(C)=O)[C@@H]1C [rifalazil, 3′-hydroxy-5′-(4-isobutyl-1-piperazinyl) benzoxazinorifamycin]
- headache ([1]; 30 mg single oral dose (3/5 subjects)): 38%
- patients reporting AEs ([1]; 30 mg single oral dose (5/8)): Sixty-two
- WBC count nadir values, one subject ([1]; 30 mg single oral dose, Days 3 and 7, baseline 4.3×10^3): 3.8×10^3 cells/mm^3
- Tmax ([2]; male, human, plasma, oral, 25 mg): ~3 h
- absorption (Cmax and AUC) fasted versus fed ([2]; overnight fast compared with 30% or 60% fat meal, single 25 mg): lower
- degradation in highly alkaline solutions ([3]; highly alkaline solutions): rapid
- degradation to 25-desacetyl derivative ([3]; pH 1, room temperature, in one hour): approximately 6%
- deaths, serious AEs, or discontinuations due to AEs [4]: No deaths, serious AEs, or discontinuations due to AEs
- incidence of AEs considered possibly related to study drug ([4]; male): 23%
- incidence of clinically significant laboratory abnormalities ([4]; male): 21%
- Tmax ([5]; both, po): 4 to 6.3 h
- AUC ([5]; female, oral, 2.5 mg): 98.2 ng·h/mL
- Cmax ([5]; female, oral, 2.5 mg): 7 ng/mL
- Tmax ([5]; female, oral, 2.5 mg): 4.3 h
- half-life ([5]; female, oral, 2.5 mg): 5.84 days
- AUC ([5]; female, oral, 5 mg): 197 ng·h/mL
- Cmax ([5]; female, oral, 5 mg): 14.3 ng/mL
- Tmax ([5]; female, oral, 5 mg): 5.3 h
- half-life ([5]; female, oral, 5 mg): 7.23 days
- AUC ([5]; female, oral, 12.5 mg): 339 ng·h/mL
- Cmax ([5]; female, oral, 12.5 mg): 19.1 ng/mL
- Tmax ([5]; female, oral, 12.5 mg): 6.3 h
- half-life ([5]; female, oral, 12.5 mg): 3.6 days
- half-life ([5]; female, po): 3.58 to 5.83 days
- AUC0-Tau/Dose Mean ([5]; females, 2.5 mg QD × 5 days): 2540.1
- Cmax/Dose Mean ([5]; females, 2.5 mg QD × 5 days): 184.1
- AUC0-Tau/Dose Mean ([5]; females, 5 mg QD × 5 days): 2539.0
- Cmax/Dose Mean ([5]; females, 5 mg QD × 5 days): 183.6
- AUC0-Tau/Dose Mean ([5]; females, 12.5 mg × 2 doses): 1614.0
- Cmax/Dose Mean ([5]; females, 12.5 mg × 2 doses): 90.6
- AUC ([5]; male, oral, 2.5 mg): 178 ng·h/mL
- Cmax ([5]; male, oral, 2.5 mg): 8.5 ng/mL
- Tmax ([5]; male, oral, 2.5 mg): 4.3 h
- half-life ([5]; male, oral, 2.5 mg): 5.6 days
- AUC ([5]; male, oral, 5 mg): 261 ng·h/mL
- Cmax ([5]; male, oral, 5 mg): 17.3 ng/mL
- Tmax ([5]; male, oral, 5 mg): 4 h
- half-life ([5]; male, oral, 5 mg): 4.94 days
- AUC ([5]; male, oral, 12.5 mg): 398 ng·h/mL
- Cmax ([5]; male, oral, 12.5 mg): 20.9 ng/mL
- Tmax ([5]; male, oral, 12.5 mg): 6.2 h
- half-life ([5]; male, oral, 12.5 mg): 5.01 days
- half-life ([5]; male, po): 4.92 to 5.58 days
- AUC0-Tau/Dose Mean ([5]; males, 2.5 mg QD × 5 days): 5788.5
- Cmax/Dose Mean ([5]; males, 2.5 mg QD × 5 days): 279.2
- AUC0-Tau/Dose Mean ([5]; males, 5 mg QD × 5 days): 4152.6
- Cmax/Dose Mean ([5]; males, 5 mg QD × 5 days): 273.7
- AUC0-Tau/Dose Mean ([5]; males, 12.5 mg × 2 doses): 2357.9
- Cmax/Dose Mean ([5]; males, 12.5 mg × 2 doses): 124.2
- bioavailability ([6]; female rats, 3 mg/kg): 28.9%
- bioavailability ([6]; female rats, 100 mg/kg): 6.1%
- bioavailability ([6]; male rats, 3 mg/kg): 43.5%
- bioavailability ([6]; male rats, 100 mg/kg): 11.7%
- Vdβ/F ([6]; rats, oral administration): 40 to 80 L/kg
- Vdβ/F ([7]; dogs, oral administration): 40 to 80 L/kg
- bioavailability ([7]; plasma, po, beagle dog, 10 mg/kg): 16 to 17%
- concentrations in genitourinary and GI tissues and coronary arteries versus plasma [8]: exceeded concentrations in plasma
- partition coefficient (n-octanol:water) [9]: 70, 569-900,000
- logP ([9]; n-octanol:water, different experiments, read-out: Log P range): 4.9 to 5.9
- solubility ([9]; pH 7.4, aqueous buffer, physiological pH, read-out: solubility in water): ~0.2 µg/mL (≈ 0.213 µM)
- subjects with low WBC counts ([10]; 25 mg/week): three of six
- tolerability ([10]; 25 mg/week): fairly well tolerated
- lowest individual WBC value ([10]; 25 mg/week, Day 25): 2.2×10^3 /mm^3
- subjects with low WBC counts ([10]; 50 mg/week): 6 of 8
- tolerability ([10]; 50 mg/week): not considered well tolerated
- lowest individual WBC value ([10]; 50 mg/week, Day 11): 2.3×10^3 /mm^3
- mean AST and ALT values ([10]; 50 mg/week, not in the 25 mg/week group): transient increase
- subjects with Grade 4 lymphocyte toxicity ([10]; 25-mg/week): 1 subject
- time for WBC values to return to baseline after cessation of dosing ([10]; 25 and 50 mg/week): ≤ 2 weeks
- subjects with Grade 4 lymphocyte toxicity ([10]; 50-mg/week): 3 subjects
- overall incidence of AEs ([10]; after the first weekly dose): 33%
- overall incidence of AEs ([10]; after the second and third weekly dose): 12%
- overall incidence of AEs ([10]; at the fourth weekly dose): 0%
- neck pain ([10]; rifalazil group (1/6)): 17%
- back pain ([10]; rifalazil group (2/6)): 33%
- chills ([10]; rifalazil group (3/6)): 50%
- insomnia, anorexia, nausea, thirst and vomiting (each) ([10]; rifalazil group (all in 1/6 patients)): 17%
- asthenia ([10]; rifalazil-treated groups): 33%
- dizziness ([10]; rifalazil-treated groups): 50%
- fever ([10]; rifalazil-treated groups): 67%
- headache ([10]; rifalazil-treated groups): 67%
- pain ([10]; rifalazil-treated groups): 50%
